{"source": "ChEMBL document CHEMBL6083204", "about": "“Synthesis of a celastrol derivative as a cancer stem cell inhibitor through regulation of the STAT3 pathway for treatment of ovarian cancer” (RSC Med Chem, 2024)", "key": {"Mitochondrial membrane [1]": {"tested_on": "Mitochondrial membrane", "test": "Induction of mitochondrial membrane potential loss in human SK-OV-3 cells at 0.2 uM incubated for 24 hrs by JC-1 staining based flow cytometry (reference value: 73.6 %)"}, "SK-OV-3 [2]": {"tested_on": "SK-OV-3", "test": "Induction of cell cycle arrest in human SK-OV-3 cells assessed as reduction of CDK2 expression at 0.4 uM incubated for 24 hrs by flow cytometry (reference value: 94.4 %)", "assay_type": "functional", "parameters": "scale not given: the % may be the effect or the level left"}, "SK-OV-3 [3]": {"tested_on": "SK-OV-3", "test": "Induction of ROS production in human SK-OV-3 cells assessed as increase in fluorescence intensity incubated for 24 hrs by DCFH-DA staining based flow cytometry", "assay_type": "functional, cell-based"}, "SK-OV-3 [4]": {"tested_on": "SK-OV-3", "test": "Induction of apoptosis in human SK-OV-3 cells assessed as necrotic cells at 0.8 uM incubated for 24 hrs by Annexin V-FITC/7-AAD staining based flow cytometry (reference value: 0.6 %)", "assay_type": "functional"}, "SK-OV-3 [5]": {"tested_on": "SK-OV-3", "test": "Antitumor activity against human SK-OV-3 cells xenografted in BALB/c mouse assessed as reduction in number of tumor cells at 2 to 5 mg/kg,ip administrated for 21 consecutive days by hematoxylin and eosin staining based assay", "assay_type": "functional, organism-based", "settings": "dose 2-5 mg/kg"}, "[6]": {"target": "Tyrosine-protein kinase JAK1 (Homo sapiens) (UniProt P23458)", "sequence (P23458 whole entry)": "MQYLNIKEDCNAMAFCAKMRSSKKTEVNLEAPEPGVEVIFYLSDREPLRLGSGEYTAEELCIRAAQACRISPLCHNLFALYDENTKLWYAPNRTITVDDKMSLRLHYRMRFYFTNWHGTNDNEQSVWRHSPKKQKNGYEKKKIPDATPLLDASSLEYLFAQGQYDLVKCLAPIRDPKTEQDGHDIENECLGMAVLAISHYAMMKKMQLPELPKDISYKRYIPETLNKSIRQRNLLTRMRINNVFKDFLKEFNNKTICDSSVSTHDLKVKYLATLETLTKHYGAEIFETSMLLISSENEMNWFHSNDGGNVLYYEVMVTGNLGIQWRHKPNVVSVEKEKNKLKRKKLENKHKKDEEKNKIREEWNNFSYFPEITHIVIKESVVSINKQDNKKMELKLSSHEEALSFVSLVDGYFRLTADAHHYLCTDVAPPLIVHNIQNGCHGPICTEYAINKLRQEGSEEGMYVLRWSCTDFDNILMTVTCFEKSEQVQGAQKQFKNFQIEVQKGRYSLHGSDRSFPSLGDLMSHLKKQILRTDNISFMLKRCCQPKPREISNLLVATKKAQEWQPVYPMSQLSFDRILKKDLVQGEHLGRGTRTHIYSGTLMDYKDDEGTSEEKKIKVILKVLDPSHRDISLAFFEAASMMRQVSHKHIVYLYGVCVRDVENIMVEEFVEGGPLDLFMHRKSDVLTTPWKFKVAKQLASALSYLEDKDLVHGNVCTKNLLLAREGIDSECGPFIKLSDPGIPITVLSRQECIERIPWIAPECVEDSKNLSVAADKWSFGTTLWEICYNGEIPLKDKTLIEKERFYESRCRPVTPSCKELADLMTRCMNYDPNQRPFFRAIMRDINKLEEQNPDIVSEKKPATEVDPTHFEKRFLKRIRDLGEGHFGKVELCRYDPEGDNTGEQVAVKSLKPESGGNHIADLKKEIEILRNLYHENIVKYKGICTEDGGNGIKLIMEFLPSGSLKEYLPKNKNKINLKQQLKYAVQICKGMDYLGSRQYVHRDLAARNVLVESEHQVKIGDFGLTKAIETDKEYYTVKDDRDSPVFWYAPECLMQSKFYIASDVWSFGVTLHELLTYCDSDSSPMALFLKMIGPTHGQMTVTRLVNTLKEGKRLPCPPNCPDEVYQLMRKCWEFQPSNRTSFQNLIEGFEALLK", "test": "Inhibition of JAK1 in human SK-OV-3 cells assessed as downregulation of JAK1 phosphorylation at 0.1 to 0.4 uM incubated for 24 hrs by Western blotting analysis", "assay_type": "cell-based", "settings": "dose 0.1-0.4 µM"}, "SK-OV-3 [7]": {"tested_on": "SK-OV-3", "test": "Induction of cell cycle arrest in human SK-OV-3 cells assessed as accumulation of cells at G0/G1 phase at 0.8 uM incubated for 24 hrs by BrdU staining based flow cytometry (reference value: 59.8 %)", "assay_type": "functional"}, "SK-OV-3 [8]": {"tested_on": "SK-OV-3", "test": "Induction of apoptosis in human SK-OV-3 cells assessed as early apoptotic cells at 0.2 uM incubated for 24 hrs by Annexin V-FITC/7-AAD staining based flow cytometry (reference value: 1.6 %)", "assay_type": "functional"}, "Mitochondrial membrane [9]": {"tested_on": "Mitochondrial membrane", "test": "Induction of mitochondrial membrane potential loss in human SK-OV-3 cells at 0.4 uM incubated for 24 hrs by JC-1 staining based flow cytometry (reference value: 73.6 %)"}, "A2780 [10]": {"tested_on": "A2780", "test": "Inhibition of human A2780 cells spheroid formation assessed as reduction in spheroid number at 0.1 to 0.4 uM incubated for 10 days by inverted microscopic analysis", "assay_type": "functional, cell-based", "settings": "dose 0.1-0.4 µM, time 10.0 day"}, "A2780 [11]": {"tested_on": "A2780", "test": "Induction of cell cycle arrest in human A2780 cells assessed as accumulation of cells at G0/G1 phase at 0.4 uM incubated for 24 hrs by BrdU staining based flow cytometry (reference value: 42.4 %)", "assay_type": "functional"}, "SK-OV-3 [12]": {"tested_on": "SK-OV-3", "test": "Induction of cell cycle arrest in human SK-OV-3 cells assessed as accumulation of cells at G0/G1 phase at 0.2 uM incubated for 24 hrs by BrdU staining based flow cytometry (reference value: 59.8 %)", "assay_type": "functional"}, "SK-OV-3 [13]": {"tested_on": "SK-OV-3", "test": "Antitumor activity against human SK-OV-3 cells xenografted in BALB/c mouse assessed as reduction in tumor weight at 2 mg/kg,ip administrated for 21 consecutive days", "assay_type": "functional, organism-based"}, "SK-OV-3 [14]": {"tested_on": "SK-OV-3", "test": "Inhibition of cell migration in human SK-OV-3 cells assessed as reduction in number of migrated cells at 0.1 to 0.4 uM incubated for 24 hrs by crystal violet staining based transwell assay", "assay_type": "functional", "settings": "dose 0.1-0.4 µM"}, "A2780 [15]": {"tested_on": "A2780", "test": "Induction of apoptosis in human A2780 cells assessed as viable cells at 0.8 uM incubated for 24 hrs by Annexin V-FITC/7-AAD staining based flow cytometry (reference value: 95 %)", "assay_type": "functional", "settings": "read-out: Activity"}, "[16]": {"target": "Signal transducer and activator of transcription 3 (Homo sapiens) (UniProt P40763)", "sequence (P40763 whole entry)": "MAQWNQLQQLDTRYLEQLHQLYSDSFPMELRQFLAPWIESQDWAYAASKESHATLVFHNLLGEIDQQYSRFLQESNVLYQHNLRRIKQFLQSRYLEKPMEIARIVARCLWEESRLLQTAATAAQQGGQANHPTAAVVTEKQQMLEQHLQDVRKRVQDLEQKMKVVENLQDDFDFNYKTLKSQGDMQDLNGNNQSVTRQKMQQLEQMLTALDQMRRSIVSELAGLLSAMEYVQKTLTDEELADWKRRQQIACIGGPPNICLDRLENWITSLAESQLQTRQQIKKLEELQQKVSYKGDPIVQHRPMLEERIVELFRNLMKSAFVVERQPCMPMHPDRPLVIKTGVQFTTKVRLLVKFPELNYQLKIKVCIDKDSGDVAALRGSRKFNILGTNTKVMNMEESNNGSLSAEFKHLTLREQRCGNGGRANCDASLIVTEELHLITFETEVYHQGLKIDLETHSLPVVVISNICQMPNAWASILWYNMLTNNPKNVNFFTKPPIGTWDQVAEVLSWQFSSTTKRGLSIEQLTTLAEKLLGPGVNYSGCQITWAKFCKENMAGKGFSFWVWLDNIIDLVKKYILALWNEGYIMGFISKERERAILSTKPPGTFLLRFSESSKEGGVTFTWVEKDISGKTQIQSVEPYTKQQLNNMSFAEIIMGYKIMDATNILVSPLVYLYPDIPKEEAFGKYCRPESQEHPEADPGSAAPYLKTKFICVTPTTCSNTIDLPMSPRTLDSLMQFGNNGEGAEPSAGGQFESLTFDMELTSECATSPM", "test": "Inhibition of STAT3 in human SK-OV-3 cells assessed as downregulation of STAT3 phosphorylation at Ser727 residue in nuclei at 0.2 uM incubated for 24 hrs by Hoechst33342 staining based immunofluorescence assay", "assay_type": "cell-based"}, "[17]": {"target": "Signal transducer and activator of transcription 3 (Homo sapiens) (UniProt P40763)", "test": "Inhibition of STAT3 in human A2780 cells assessed as downregulation of cytoplasmic STAT3 phosphorylation at Tyr705 residue at 0.2 uM incubated for 24 hrs by Hoechst33342 staining based immunofluorescence assay", "assay_type": "cell-based"}, "A2780 [18]": {"tested_on": "A2780", "test": "Induction of cell cycle arrest in human A2780 cells assessed as accumulation of cells at G0/G1 phase at 0.8 uM incubated for 24 hrs by BrdU staining based flow cytometry (reference value: 42.4 %)", "assay_type": "functional"}, "[19]": {"target": "Signal transducer and activator of transcription 3 (Homo sapiens) (UniProt P40763)", "test": "Inhibition of STAT3 in human A2780 cells assessed as downregulation of STAT3 phosphorylation at Tyr705 residue in nuclei at 0.2 uM incubated for 24 hrs by Hoechst33342 staining based immunofluorescence assay", "assay_type": "cell-based"}, "A2780 [20]": {"tested_on": "A2780", "test": "Induction of apoptosis in human A2780 cells assessed as increase in caspase-3 activity at 0.2 uM incubated for 24 hrs by flow cytometry (reference value: 1.5 %)", "assay_type": "functional"}, "SK-OV-3 [21]": {"tested_on": "SK-OV-3", "test": "Induction of cell cycle arrest in human SK-OV-3 cells assessed as reduction of CDK4 expression at 0.8 uM incubated for 24 hrs by flow cytometry (reference value: 66.8 %)", "assay_type": "functional", "parameters": "scale not given: the % may be the effect or the level left"}, "SK-OV-3 [22]": {"tested_on": "SK-OV-3", "test": "Induction of apoptosis in human SK-OV-3 cells assessed as increase in caspase-8 activity at 0.8 uM incubated for 24 hrs by flow cytometry (reference value: 2.5 %)", "assay_type": "functional"}, "SK-OV-3 [23]": {"tested_on": "SK-OV-3", "test": "Induction of apoptosis in human SK-OV-3 cells assessed as viable cells at 0.8 uM incubated for 24 hrs by Annexin V-FITC/7-AAD staining based flow cytometry (reference value: 94.6 %)", "assay_type": "functional", "settings": "read-out: Activity"}, "SK-OV-3 [24]": {"tested_on": "SK-OV-3", "test": "Antiproliferative activity against human SK-OV-3 cells assessed as inhibition of cell growth incubated for 72 hrs by MTT assay", "assay_type": "functional, cell-based", "settings": "SK-OV-3, 72 h"}, "SK-OV-3 [25]": {"tested_on": "SK-OV-3", "test": "Induction of apoptosis in human SK-OV-3 cells assessed as late apoptotic cells at 0.8 uM incubated for 24 hrs by Annexin V-FITC/7-AAD staining based flow cytometry (reference value: 3.7 %)", "assay_type": "functional"}, "SK-OV-3 [26]": {"tested_on": "SK-OV-3", "test": "Induction of cell cycle arrest in human SK-OV-3 cells assessed as accumulation of cells at S phase at 0.8 uM incubated for 24 hrs by BrdU staining based flow cytometry (reference value: 33.6 %)", "assay_type": "functional"}, "Mitochondrial membrane [27]": {"tested_on": "Mitochondrial membrane", "test": "Induction of mitochondrial membrane potential loss in human A2780 cells at 0.2 uM incubated for 24 hrs by JC-1 staining based flow cytometry (reference value: 81 %)"}, "SK-OV-3 [28]": {"tested_on": "SK-OV-3", "test": "Induction of cell cycle arrest in human SK-OV-3 cells assessed as accumulation of cells at G2/M phase at 0.4 uM incubated for 24 hrs by BrdU staining based flow cytometry (reference value: 6.3 %)", "assay_type": "functional"}, "A2780 [29]": {"tested_on": "A2780", "test": "Induction of ROS production in human A2780 cells assessed as increase in fluorescence intensity incubated for 24 hrs by DCFH-DA staining based flow cytometry", "assay_type": "functional, cell-based"}, "SK-OV-3 [30]": {"tested_on": "SK-OV-3", "test": "Induction of cell cycle arrest in human SK-OV-3 cells assessed as reduction of CDK4 expression at 0.4 uM incubated for 24 hrs by flow cytometry (reference value: 66.8 %)", "assay_type": "functional", "parameters": "scale not given: the % may be the effect or the level left"}, "A2780 [31]": {"tested_on": "A2780", "test": "Induction of apoptosis in human A2780 cells assessed as increase in caspase-3 activity at 0.4 uM incubated for 24 hrs by flow cytometry (reference value: 1.5 %)", "assay_type": "functional"}, "A2780 [32]": {"tested_on": "A2780", "test": "Antiproliferative activity against human A2780 cells assessed as decrease in CD44 positive CD24 negative cells expression at 0.2 uM incubated for 24 hrs by FITC staining based flow cytometry (reference value: 28.13 %)", "assay_type": "functional", "parameters": "scale not given: the % may be the effect or the level left"}}, "note": "Active and inactive are the calls of the source. No cut-off for these calls is given here.", "data": [{"smiles": "CC1=C(O)C(=O)C=C2C1=CC=C1[C@@]2(C)CC[C@@]2(C)[C@@H]3C[C@](C)(C(=O)N4CCNCC4)CC[C@]3(C)CC[C@]12C", "values": [{"measurement": "Activity", "setting": "Mitochondrial membrane [1]", "result": 49.6, "unit": "%"}, {"measurement": "Activity", "setting": "SK-OV-3 [2]", "result": 80.7, "unit": "%"}, {"measurement": "Activity", "setting": "SK-OV-3 [3]", "result": "Dose-dependent-effect"}, {"measurement": "Activity", "setting": "SK-OV-3 [4]", "result": 1.4, "unit": "%"}, {"measurement": "Activity", "setting": "SK-OV-3 [5]", "result": "Active"}, {"measurement": "inhibition", "setting": "[6]", "result": "Active"}, {"measurement": "Activity", "setting": "SK-OV-3 [7]", "result": 47.7, "unit": "%"}, {"measurement": "Activity", "setting": "SK-OV-3 [8]", "result": 17.3, "unit": "%"}, {"measurement": "Activity", "setting": "Mitochondrial membrane [9]", "result": 17.2, "unit": "%"}, {"measurement": "inhibition", "setting": "A2780 [10]", "result": "Active"}, {"measurement": "Activity", "setting": "A2780 [11]", "result": 64.7, "unit": "%"}, {"measurement": "Activity", "setting": "SK-OV-3 [12]", "result": 59.2, "unit": "%"}, {"measurement": "Activity", "setting": "SK-OV-3 [13]", "result": "Active"}, {"measurement": "inhibition", "setting": "SK-OV-3 [14]", "result": "Active"}, {"measurement": "viability at 0.8 µM", "setting": "A2780 [15]", "result": 24.5, "unit": "%"}, {"measurement": "inhibition", "setting": "[16]", "result": "Active"}, {"measurement": "inhibition", "setting": "[17]", "result": "Active; Showed Mild Inhibition Activity"}, {"measurement": "Activity", "setting": "A2780 [18]", "result": 70.5, "unit": "%"}, {"measurement": "inhibition", "setting": "[19]", "result": "Active"}, {"measurement": "Activity", "setting": "A2780 [20]", "result": 3.7, "unit": "%"}, {"measurement": "Activity", "setting": "SK-OV-3 [21]", "result": 29.8, "unit": "%"}, {"measurement": "Activity", "setting": "SK-OV-3 [22]", "result": 74.7, "unit": "%"}, {"measurement": "viability at 0.8 µM", "setting": "SK-OV-3 [23]", "result": 48, "unit": "%"}, {"measurement": "IC50", "setting": "SK-OV-3 [24]", "result": 210, "unit": "nM"}, {"measurement": "Activity", "setting": "SK-OV-3 [25]", "result": 17.4, "unit": "%"}, {"measurement": "Activity", "setting": "SK-OV-3 [26]", "result": 37.2, "unit": "%"}, {"measurement": "Activity", "setting": "Mitochondrial membrane [27]", "result": 53.2, "unit": "%"}, {"measurement": "Activity", "setting": "SK-OV-3 [28]", "result": 7.4, "unit": "%"}, {"measurement": "Activity", "setting": "A2780 [29]", "result": "Dose-dependent-effect"}, {"measurement": "Activity", "setting": "SK-OV-3 [30]", "result": 70.6, "unit": "%"}, {"measurement": "Activity", "setting": "A2780 [31]", "result": 24.1, "unit": "%"}, {"measurement": "Activity", "setting": "A2780 [32]", "result": 17.97, "unit": "%"}]}]}
